Test results as given in PubChem BioAssay (NCI).
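Step 1: Grow cells in 96-well plates. Step 2: Expose to compound for 48 hours at 5 concentrations. Step 3: Interpolate endpoints linearly; if unreached, use highest concentration. GI50 marks 50% less growth. TGI: concentration producing complete growth inhibition.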

Tests used:
Assay in all cases: growth of human tumour cells (NCI), 48 h
786-0 renal = test system: 786-0 renal
A498 renal = test system: A498 renal
A549 NSCLC = test system: A549 NSCLC
ACHN renal = test system: ACHN renal
BT-549 breast = test system: BT-549 breast
CAKI-1 renal = test system: CAKI-1 renal
CCRF-CEM leukemia = test system: CCRF-CEM leukemia
DU-145 prostate = test system: DU-145 prostate
EKVX NSCLC = test system: EKVX NSCLC
HCC-2998 colon = test system: HCC-2998 colon
HCT-116 colon = test system: HCT-116 colon
HL-60(TB) leukemia = test system: HL-60(TB) leukemia
HOP-62 NSCLC = test system: HOP-62 NSCLC
HOP-92 NSCLC = test system: HOP-92 NSCLC
HS 578T breast = test system: HS 578T breast
HT29 colon = test system: HT29 colon
IGROV1 ovarian = test system: IGROV1 ovarian
KM12 colon = test system: KM12 colon
LOX IMVI melanoma = test system: LOX IMVI melanoma
MALME-3M melanoma = test system: MALME-3M melanoma
MCF7 breast = test system: MCF7 breast
MDA-MB-231 breast = test system: MDA-MB-231 breast
MDA-MB-468 breast = test system: MDA-MB-468 breast
MOLT-4 leukemia = test system: MOLT-4 leukemia
NCI-H226 lung = test system: NCI-H226 lung
NCI-H23 lung = test system: NCI-H23 lung
NCI-H460 lung = test system: NCI-H460 lung
NCI-H522 lung = test system: NCI-H522 lung
NCI/ADR-RES ovarian = test system: NCI/ADR-RES ovarian
OVCAR-3 ovarian = test system: OVCAR-3 ovarian
OVCAR-4 ovarian = test system: OVCAR-4 ovarian
OVCAR-5 ovarian = test system: OVCAR-5 ovarian
OVCAR-8 ovarian = test system: OVCAR-8 ovarian
PC-3 prostate = test system: PC-3 prostate
RXF 393 renal = test system: RXF 393 renal
SF-268 CNS = test system: SF-268 CNS
SF-295 CNS = test system: SF-295 CNS
SF-539 CNS = test system: SF-539 CNS
SK-MEL-2 melanoma = test system: SK-MEL-2 melanoma
SK-MEL-28 melanoma = test system: SK-MEL-28 melanoma
SK-MEL-5 melanoma = test system: SK-MEL-5 melanoma
SK-OV-3 ovarian = test system: SK-OV-3 ovarian
SN12C renal = test system: SN12C renal
SNB-19 CNS = test system: SNB-19 CNS
SNB-75 CNS = test system: SNB-75 CNS
SW-620 colon = test system: SW-620 colon
T-47D breast = test system: T-47D breast
TK-10 renal = test system: TK-10 renal
U251 CNS = test system: U251 CNS
UACC-257 melanoma = test system: UACC-257 melanoma
UACC-62 melanoma = test system: UACC-62 melanoma
UO-31 renal = test system: UO-31 renal

Cn1cc(-c2cc3nc(-c4cn(C)c5ncccc45)cc(N)n3n2)c2ccccc21
GI50 (786-0 renal): 1.68 µM | TGI (786-0 renal): 3.16 µM | GI50 (A498 renal): 17.6 µM | TGI (A498 renal): 37 µM | GI50 (A549 NSCLC): 4.6 µM | TGI (A549 NSCLC): > 100 µM | GI50 (ACHN renal): 2.6 µM | TGI (ACHN renal): 7.42 µM | GI50 (BT-549 breast): 10.2 µM | TGI (BT-549 breast): 24.3 µM | GI50 (CAKI-1 renal): 3.74 µM | TGI (CAKI-1 renal): 19.1 µM | GI50 (CCRF-CEM leukemia): 2.52 µM | TGI (CCRF-CEM leukemia): 6.49 µM | GI50 (DU-145 prostate): 9.59 µM | TGI (DU-145 prostate): 52.9 µM | GI50 (EKVX NSCLC): 10.7 µM | TGI (EKVX NSCLC): 51.3 µM | GI50 (HCC-2998 colon): 2.26 µM | TGI (HCC-2998 colon): 5.44 µM | GI50 (HCT-116 colon): 2.56 µM | TGI (HCT-116 colon): 6.9 µM | GI50 (HL-60(TB) leukemia): 2.33 µM | TGI (HL-60(TB) leukemia): 5.11 µM | GI50 (HOP-62 NSCLC): 4.5 µM | TGI (HOP-62 NSCLC): 20.7 µM | GI50 (HOP-92 NSCLC): 2.93 µM | TGI (HOP-92 NSCLC): 8.33 µM | GI50 (HS 578T breast): 2.48 µM | TGI (HS 578T breast): 8.08 µM | GI50 (HT29 colon): 2.15 µM | TGI (HT29 colon): 6.22 µM | GI50 (IGROV1 ovarian): 2.84 µM | TGI (IGROV1 ovarian): 8.11 µM | GI50 (KM12 colon): 3.84 µM | TGI (KM12 colon): > 100 µM | GI50 (LOX IMVI melanoma): 2.15 µM | TGI (LOX IMVI melanoma): 4.65 µM | GI50 (MALME-3M melanoma): 1.86 µM | TGI (MALME-3M melanoma): 3.3 µM | GI50 (MCF7 breast): 3.38 µM | TGI (MCF7 breast): 24.2 µM | GI50 (MDA-MB-231 breast): 2.99 µM | TGI (MDA-MB-231 breast): 9.7 µM | GI50 (MDA-MB-468 breast): 2.43 µM | TGI (MDA-MB-468 breast): 7.76 µM | GI50 (MOLT-4 leukemia): 2.38 µM | TGI (MOLT-4 leukemia): 8.9 µM | GI50 (NCI-H226 lung): 2.7 µM | TGI (NCI-H226 lung): 7.12 µM | GI50 (NCI-H23 lung): 10 µM | TGI (NCI-H23 lung): 41.2 µM | GI50 (NCI-H460 lung): 3.75 µM | TGI (NCI-H460 lung): 14.7 µM | GI50 (NCI-H522 lung): 2.35 µM | TGI (NCI-H522 lung): 5.91 µM | GI50 (NCI/ADR-RES ovarian): 5.02 µM | TGI (NCI/ADR-RES ovarian): 24.9 µM | GI50 (OVCAR-3 ovarian): 3.08 µM | TGI (OVCAR-3 ovarian): 11.4 µM | GI50 (OVCAR-4 ovarian): 2.6 µM | TGI (OVCAR-4 ovarian): 8.09 µM | GI50 (OVCAR-5 ovarian): 8.81 µM | TGI (OVCAR-5 ovarian): 98.9 µM | GI50 (OVCAR-8 ovarian): 5.63 µM | TGI (OVCAR-8 ovarian): > 100 µM | GI50 (PC-3 prostate): 5.52 µM | TGI (PC-3 prostate): 55 µM | GI50 (RXF 393 renal): 2.01 µM | TGI (RXF 393 renal): 4.01 µM | GI50 (SF-268 CNS): 17.2 µM | TGI (SF-268 CNS): > 100 µM | GI50 (SF-295 CNS): 1.73 µM | TGI (SF-295 CNS): 3.63 µM | GI50 (SF-539 CNS): 1.8 µM | TGI (SF-539 CNS): 3.71 µM | GI50 (SK-MEL-2 melanoma): 2.17 µM | TGI (SK-MEL-2 melanoma): 5.5 µM | GI50 (SK-MEL-28 melanoma): 1.71 µM | TGI (SK-MEL-28 melanoma): 3.12 µM | GI50 (SK-MEL-5 melanoma): 3.44 µM | TGI (SK-MEL-5 melanoma): 15.7 µM | GI50 (SK-OV-3 ovarian): 21 µM | TGI (SK-OV-3 ovarian): 69.3 µM | GI50 (SN12C renal): 2.97 µM | TGI (SN12C renal): 14.2 µM | GI50 (SNB-19 CNS): 5.11 µM | TGI (SNB-19 CNS): 26.7 µM | GI50 (SNB-75 CNS): 4.97 µM | TGI (SNB-75 CNS): 24.6 µM | GI50 (SW-620 colon): 4.38 µM | TGI (SW-620 colon): > 100 µM | GI50 (T-47D breast): 5.77 µM | TGI (T-47D breast): 74.7 µM | GI50 (TK-10 renal): 11.6 µM | TGI (TK-10 renal): 51.6 µM | GI50 (U251 CNS): 3.16 µM | TGI (U251 CNS): 21.4 µM | GI50 (UACC-257 melanoma): 1.83 µM | TGI (UACC-257 melanoma): 3.71 µM | GI50 (UACC-62 melanoma): 1.73 µM | TGI (UACC-62 melanoma): 3.34 µM | GI50 (UO-31 renal): 4.77 µM | TGI (UO-31 renal): 40.9 µM
